We go through one molecule from US4190675A (priority 1976, dated 1980).

Broadly, the LD50 is the dose at which mortality reaches 50%. The low end stands for greater toxicity, the high end for lower toxicity.

≈ marks a conversion by molar mass, not a printed value. Entries after “also recorded” stand apart in the source; their conditions may differ.

Data set [1] is described as follows: Acute toxicity in rats (LD50, Litchfield and Wilcoxon). The settings on record: rat, in vivo, iv, intravenously.
The subject of data set [2] is isolated Guinea-pig trachea. The experiment in a line: Relaxation of the isolated Guinea-pig trachea (Costantine). The format is cell-based.
A further data set deals with rabbits. As to the kind of experiment: Inhibition of histamine-induced bronchospasm by intravenous perfusion in rabbits. The format is in vivo. Conditions: perfused intravenously 2.5 milligrams per kilogram and per minute.
Another data set deals with rats. The experiment in a line: Carrageenin-induced paw oedema in rats (Winter). The format is in vivo, albino rats, COBS (Charles River) stock. For orientation: Carrageenan injected into the paw causes an acute inflammation.
The next data set relates to red blood cells of rats. The experiment in a line: Protection of red blood cells from haemolysis induced by Tween 80, in vitro. The format is cell-based. From the text: (fiducial limits 95% : 518.0-760.11).
The next data set relates to thrombocyte aggregation. As to the kind of experiment: Inhibition of thrombocyte aggregation from ADP in vitro (Born and Cross). Type of data set: cell-based.
A further data set deals with Staphylococcus aureus. The experiment in a line: Antibacterial activity (MIC), Staphylococcus aureus. Type of data set: cell-based.
A further data set deals with Escherichia coli. As to the kind of experiment: Antibacterial activity (MIC), Escherichia coli. The format is cell-based.

In data set [1], `C=C1C(O)CC2CC1C2(C)C` (stereo not drawn) [Pinocarveol, pinocarveol] had an LD50 of 140 mg/kg. For the same molecule, in data set [2] (in vitro, isolated Guinea-pig trachea), the “relaxation of the smooth tracheal muscles, intensity compared with Fraction 2 and sobrerol (in words)” value is “statistically higher than that of sobrerol and which can be compared to that of Fraction 2”. The “bronchodilating activity, grade (in words)” value in data set [2] (overall, in vitro and in vivo) is “fair bronchodilating action; also recorded: poor bronchodilating action”. Moreover, the “inhibition of histamine-induced bronchospasm compared with Fraction 2 and sobrerol (in words)” value in the data set on rabbits is “statistically higher than those of FRACTION 2 and of sobrerol”. Also, the “anti-inflammatory action, grade (in words)” value with rats (overall summary) is on record as “pronounced anti-inflammatory action”. In addition, the “inhibition of carrageenin paw oedema compared with Fraction 2 and sobrerol (in words)” value in the data set with rats (rats, 30 mg/kg intravenously) was “more intense than those of Fraction 2 and of sobrerol”. Also, in the data set on red blood cells of rats (Rattus norvegicus, Erythrocyte, Tween 80, 20 to 200 micrograms/ml, fiducial limits 95%=111.5-153.04, read-out: Effective Concentration 50% (EC 50), protection from haemolysis), the EC50 was determined as 132 µg/mL (≈ 0.869 mM). The “antihaemolytic activity, grade (in words)” value in the data set with red blood cells of rats (overall summary) is reported as “pronounced antihaemolytic activity”. For the same molecule, the “inhibition of thrombocyte aggregation compared with Fraction 2 and sobrerol (in words)” value in the data set with thrombocyte aggregation (160 to 1,280 micrograms/ml, ADP, in vitro) was “exceeds that of the terpenes of the Fraction 2 and that of sobrerol”. In the data set with thrombocyte aggregation (overall summary), the “antiaggregative action, grade (in words)” value is given as “conspicuous antiaggregative action”. The results for the “antibacterial activity, grade (in words)” value in the data set with Staphylococcus aureus (Gram-positive germs / overall) and in the data set with Escherichia coli (Gram-negative germs) were “poor antibacterial activity; also recorded: poor antibacterial action” and “poor antibacterial activity”, respectively. For the same molecule, in the data set on Staphylococcus aureus (Staphylococcus aureus and Escherichia coli), the “antibacterial activity compared with Fraction 2 and sobrerol (in words)” value was “more active than sobrerol and as active as Fraction 2”. The MIC in the data set on Staphylococcus aureus (Staphylococcus aureus, read-out: Minimum Inhibiting Concentration (MIC)) was 800 µg/mL (≈ 5.25 mM); in the data set on Escherichia coli (Escherichia coli, read-out: Minimum Inhibiting Concentration (MIC)) it was 800 µg/mL (≈ 5.25 mM).
